Laboratory results: US9422324B2, “6-substituted demethyl-estradiol derivatives as selective ER-β agonists” (priority 2010, dated 2016)

Tests used:
TREK1 = assay: Expression profiling (Agilent microarray), TREK1 gene transcription in tumor cell lines; format: cell-based, human; details: 24 hours
Procedure: (§1) The study includes three human tumor cell lines: A549, Panc-1, and SK-OV-3. The lines are each grown in two flasks cultured to roughly 40% confluence. One of the flasks is treated by addition of drug to the culture media at a various concentrations. The other, mock treated, flask is treated only with the vehicle used to solubilize and deliver the drug. RNA extracted from the pairs of treated and untreated samples is subjected to microarray analysis on Agilent Whole Human Genome Microarrays (G4112F). Each analysis reports the difference in abundance of messenger RNAs for each of the 41,000 specific mRNA detectors on the array. This direct comparison of the treated versus untreated samples for each cell line provides extremely sensitive detection of changes in mRNA abundance resulting from the drug treatment. As each cell line comparison is self-normalized, the results can be compared across the samples with high confidence.
(§2) Three human tumor cell lines, A549, Panc-1, and SK-OV-3, are each grown in two flasks cultured to roughly 40% confluence. One of the flasks is treated by addition of compound 1 to the culture media at concentrations according to Table 1 above. The other, mock treated, flask is treated only with the vehicle used to solubilize and deliver the drug. All flasks are cultured for a further 24 hours, and then the cells are scraped free and washed in ice-cold PBS, then collected by centrifugation. The harvested cells are immediately frozen, and stored at −80° C. or colder. It is visually noticeable that the treated cells yielded less mass than the untreated cells.
(§3) Total RNA is prepared from the frozen tissue samples using Trizol-based cell lysis followed by 65° C. hot phenol extraction and RNeasy chromatography purification. The purified RNA samples are analyzed spectrophotometrically. The concentration of RNA is determined by measuring the absorbance at 260 nm (A260). Given an absorbance of 1 unit at 260 nm corresponds to […].
(§4) All RNAs are labeled using 1 microgram of RNA as input to an Agilent Low Input Labeling reaction.
(§5) Test RNA is labeled with Cy5 (650 nm emitter) and reference RNA is labeled with Cy3 (550 nm emitter) nucleotides. Labeling, hybridizations and subsequent washings are carried out on Agilent H1Av2 human expression chips. The resulting hybridized chips are scanned on an Agilent microarray scanner, and intensity information for each detector spot is extracted from the scanned image using Agilent feature extraction software. The set of data images and extracted measurements from each image are supplied.
(§6) The data reported are the red (treated) and green (untreated) background-subtracted signals. This is the least modified form of the data. A background “surface” is estimated across the slide, based on numerous probes that are not complementary to human DNA. These serve as estimators of both non-specific binding of labeled cRNA to array surfaces and non-specific binding of labeled cRNA to the immobilized DNA oligomers. Using this information, local noise around each probe is estimated and this is subtracted from the signal found at the area of oligonucleotide deposition for each particular probe feature on the array (gBGSubSignal, rBGSubSignal). The ratio of signal from the RNA of the treated cell and the RNA of the untreated cell is reported both as a direct ratio and as the log2 ratio (Ratio, Log2Ratio).
(§7) After the ratios have been calculated for the normalized data, the various control and duplicate samples are analyzed to build a model of how reproducible the results are, and how this reproducibility is varies depending on signal strength and noise. With these parameters, an estimate of the likelihood that each ratio could have arisen if the red and green intensities are randomly drawn from a single process that produced the same distribution of intensities is produced. […]

ERβ = ERβ (Homo sapiens (Human), UniProt Q92731); assay: Luciferase reporter assay in MDA-MB-231 cells transfected with ERα or ERβ; format: cell-based; details: MDA-MB-231, 24 hours; relative to B and I; from FIGS. 2 and 3 and Table 1
ERβ, sequence (Q92731 whole entry, species assumed): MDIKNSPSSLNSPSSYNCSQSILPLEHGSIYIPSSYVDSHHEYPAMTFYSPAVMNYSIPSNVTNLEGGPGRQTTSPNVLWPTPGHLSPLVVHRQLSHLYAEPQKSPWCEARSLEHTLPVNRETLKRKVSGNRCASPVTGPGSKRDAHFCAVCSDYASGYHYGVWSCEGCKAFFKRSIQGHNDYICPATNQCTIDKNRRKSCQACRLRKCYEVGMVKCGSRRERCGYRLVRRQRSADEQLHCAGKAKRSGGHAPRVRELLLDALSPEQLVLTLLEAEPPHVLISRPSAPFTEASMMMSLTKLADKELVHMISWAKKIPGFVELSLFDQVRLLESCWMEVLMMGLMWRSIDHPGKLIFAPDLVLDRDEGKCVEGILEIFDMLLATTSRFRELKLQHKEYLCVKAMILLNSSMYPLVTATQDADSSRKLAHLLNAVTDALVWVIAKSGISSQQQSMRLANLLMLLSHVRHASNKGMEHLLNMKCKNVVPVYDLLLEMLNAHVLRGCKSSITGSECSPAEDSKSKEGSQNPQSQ
Procedure: Response of I and B on ERα and ERβ is measured by a luciferase assay. MDA-MB-231 cells are transiently transfected with expression vectors encoding either ERα or ERβ and co-transfected with a luciferase reporter construct. Cells are treated for 24 hours at […] with increasing amounts of test article.

TREK2 = assay: Expression profiling (Agilent microarray), TREK2 gene transcription in tumor cell lines; format: cell-based, human; details: 24 hours
Procedure: as §1, §2, §3, §4, §5, §6, §7

## COC[C@@H]1C[C@@H]2[C@H](CCC3[C@H]2CC[C@@H]3O)c2ccc(O)cc21 (stereo partly drawn) [compound 1, (6R,8S,9S,14S,17S)-6-(methoxymethyl)-7,8,9,11,12,13,14,15,16,17-decahydro-6H-cyclopenta[a]phenanthrene-3,17-diol]
TREK1; A549, 50 μM
  TREK1 Log 2 ratio treated/untreated: 4.07/
TREK1; A549, 100 μm
  TREK1 Log 2 ratio treated/untreated: 3.53/
TREK1; PANC1, 50 μM
  TREK1 Log 2 ratio treated/untreated: 2.05/
TREK1; PANC1, 20 μm
  TREK1 Log 2 ratio treated/untreated: 4.78/
TREK1; PANC1, 100 μm
  TREK1 Log 2 ratio treated/untreated: 3.51/
TREK1; SKOV-3, 50 μM
  TREK1 Log 2 ratio treated/untreated: 2.80/
TREK1; SKOV-3, 20 μm
  TREK1 Log 2 ratio treated/untreated: 1.96/
TREK1; SKOV-3, 100 μm
  TREK1 Log 2 ratio treated/untreated: 1.97/
ERβ
  ER subtype functional profile (% of E2 activity on ERα and ERβ): ERβ specific agonist
TREK2; A549, 50 μM
  TREK2 Log 2 ratio treated/untreated: 5.37/
TREK2; A549, 20 μm
  TREK2 Log 2 ratio treated/untreated: 3.79/
TREK2; A549, 100 μm
  TREK2 Log 2 ratio treated/untreated: 3.00/
TREK2; PANC1, 50 μM
  TREK2 Log 2 ratio treated/untreated: 4.20/
TREK2; PANC1, 20 μm
  TREK2 Log 2 ratio treated/untreated: 4.15/
TREK2; PANC1, 100 μm
  TREK2 Log 2 ratio treated/untreated: 3.91/
TREK2; SKOV-3, 50 μM
  TREK2 Log 2 ratio treated/untreated: 5.56/
TREK2; SKOV-3, 20 μm
  TREK2 Log 2 ratio treated/untreated: 4.12/
TREK2; SKOV-3, 100 μm
  TREK2 Log 2 ratio treated/untreated: 4.07/
